What was measured:
GCN2 = GCN2 (Homo sapiens, UniProt Q9P2K8); assay: GCN2 enzyme assay; type: biochemical
SYK = target: T1, SYK (Homo sapiens, UniProt P43405); assay: SYK flash plate assay (enzyme assay); type: biochemical
T1 construct: 2.5 nM SYK, 400 nM Biotin-Aha-Aha-KEDPDYEWPSAKK
Method in brief: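 Radiometric Flashplate format: biotinylated peptide substrate (400 nM) and 33P-labelled ATP (10 μM) react with 2.5 nM enzyme for 1 hour at 30 °C in Hepes buffer, pH 7.5. After EDTA quench and washing, counts are taken; staurosporine defines non-specific signal, and IC50 values are derived.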

Sequence of GCN2 (Q9P2K8 whole entry): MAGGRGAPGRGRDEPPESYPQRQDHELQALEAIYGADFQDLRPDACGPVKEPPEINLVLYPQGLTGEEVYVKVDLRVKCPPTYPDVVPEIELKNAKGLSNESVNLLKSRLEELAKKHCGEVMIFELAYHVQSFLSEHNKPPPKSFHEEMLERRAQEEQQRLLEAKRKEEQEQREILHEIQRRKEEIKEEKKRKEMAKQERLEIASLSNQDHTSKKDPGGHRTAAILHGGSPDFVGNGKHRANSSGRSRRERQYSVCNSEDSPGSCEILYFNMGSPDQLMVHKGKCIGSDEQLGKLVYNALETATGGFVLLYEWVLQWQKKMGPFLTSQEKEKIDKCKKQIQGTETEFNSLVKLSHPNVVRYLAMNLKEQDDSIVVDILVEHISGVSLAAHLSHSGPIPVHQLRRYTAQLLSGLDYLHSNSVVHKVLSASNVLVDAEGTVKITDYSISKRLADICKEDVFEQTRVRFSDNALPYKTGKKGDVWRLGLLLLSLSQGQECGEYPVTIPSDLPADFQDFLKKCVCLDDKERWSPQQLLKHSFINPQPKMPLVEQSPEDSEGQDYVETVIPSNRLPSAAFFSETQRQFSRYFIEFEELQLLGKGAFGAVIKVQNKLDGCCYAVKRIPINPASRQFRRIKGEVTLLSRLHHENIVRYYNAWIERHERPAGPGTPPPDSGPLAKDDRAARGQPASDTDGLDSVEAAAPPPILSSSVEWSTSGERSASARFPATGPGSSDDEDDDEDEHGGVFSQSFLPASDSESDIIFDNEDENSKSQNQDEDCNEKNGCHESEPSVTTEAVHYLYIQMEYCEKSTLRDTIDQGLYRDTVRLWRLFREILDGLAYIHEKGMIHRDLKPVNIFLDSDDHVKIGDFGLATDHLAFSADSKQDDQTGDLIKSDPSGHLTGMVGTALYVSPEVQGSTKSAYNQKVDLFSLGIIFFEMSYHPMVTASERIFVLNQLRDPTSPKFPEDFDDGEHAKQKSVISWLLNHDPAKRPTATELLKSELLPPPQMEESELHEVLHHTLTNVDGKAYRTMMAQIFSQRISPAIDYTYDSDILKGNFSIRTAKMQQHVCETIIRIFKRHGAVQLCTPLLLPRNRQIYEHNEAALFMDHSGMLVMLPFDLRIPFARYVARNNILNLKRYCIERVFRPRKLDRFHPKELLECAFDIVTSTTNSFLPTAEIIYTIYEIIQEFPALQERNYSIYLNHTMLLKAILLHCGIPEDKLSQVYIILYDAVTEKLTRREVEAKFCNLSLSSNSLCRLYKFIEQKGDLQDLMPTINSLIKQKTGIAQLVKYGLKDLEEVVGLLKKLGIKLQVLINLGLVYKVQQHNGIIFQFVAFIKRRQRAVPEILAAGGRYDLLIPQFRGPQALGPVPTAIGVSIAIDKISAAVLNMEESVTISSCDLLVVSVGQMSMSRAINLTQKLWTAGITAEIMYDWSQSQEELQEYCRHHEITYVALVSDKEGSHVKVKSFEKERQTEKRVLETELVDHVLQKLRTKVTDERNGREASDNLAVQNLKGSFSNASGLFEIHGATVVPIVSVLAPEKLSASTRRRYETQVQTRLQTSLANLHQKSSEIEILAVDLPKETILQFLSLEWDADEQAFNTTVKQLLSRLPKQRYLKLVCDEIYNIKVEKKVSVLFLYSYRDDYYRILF

Row | Compound | IC50 (GCN2) [µM] | IC50 (SYK) [µM]
1 | Cn1cc(-c2nccn3nc(Nc4ccc5c(c4)NC(=O)C(C)(C)O5)nc23)cn1 [C80, 2,2-dimethyl-6-[8-(1-methyl-1H-pyrazol-4-yl)-[1,2,4]triazolo[1,5-a]pyrazin-2-ylamino]-4H-benzo[1,4]oxazin-3-one] | 3 to 50 | 0.1 to 0.3
2 | CC(C)C1(O)C(=O)Nc2cc(Nc3nc4c(-c5cnn(C)c5)nccn4n3)ccc21 (stereo not drawn) [C82, 3-hydroxy-3-isopropyl-6-[8-(1-methyl-1H-pyrazol-4-yl)-[1,2,4]triazolo[1,5-a]pyrazin-2-ylamino]-1,3-dihydro-indol-2-one] | 0.3 to 3 | 0.1 to 0.3
3 | Cn1cc(-c2nccn3nc(Nc4ccc5c(C(C)(C)O)n[nH]c5c4)nc23)cn1 [C72, 2-{6-[8-(1-methyl-1H-pyrazol-4-yl)-[1,2,4]triazolo[1,5-a]pyrazin-2-ylamino]-1H-indazol-3-yl}-propan-2-ol] | 0.3 to 3 | < 0.1
4 | CC(C)C1(C(C)C)OC(=O)Nc2cc(Nc3nc4c(-c5cnn(C)c5)nccn4n3)ccc21 [C119, 4,4-diisopropyl-7-[8-(1-methyl-1H-pyrazol-4-yl)-[1,2,4]triazolo[1,5-a]pyrazin-2-ylamino]-1,4-dihydro-benzo[d][1,3]oxazin-2-one] | 3 to 50 | 0.1 to 0.3
5 | CC1(C)C(=O)Nc2cc(Nc3nc4c(N5CCc6[nH]cnc6C5)nccn4n3)ccc21 [C103, 3,3-dimethyl-6-[8-(1,4,6,7-tetrahydro-imidazo[4,5-c]pyridin-5-yl)-[1,2,4]triazolo[1,5-a]pyrazin-2-ylamino]-1,3-dihydro-indol-2-one] | 3 to 50 | < 0.1
6 | COc1ccc(Nc2nc3c(-c4cnn(C)c4)nccn3n2)cc1OC [C6, (3,4-Dimethoxy-phenyl)-[8-(1-methyl-1H-pyrazol-4-yl)-[1,2,4]triazolo[1,5-a]pyrazin-2yl]-amine] | 0.3 to 3 | 0.3 to 3
7 | Cn1cc(-c2nccn3nc(Nc4ccc(C5(C(N)=O)CC5)cc4)nc23)cn1 [C64, 1-{4-[8-(1-methyl-1H-pyrazol-4-yl)-[1,2,4]triazolo[1,5-a]pyrazin-2-ylamino]-phenyl}-cyclopropanecarboxylic acid amide] | 0.3 to 3 | 0.3 to 3
8 | Cc1nn(C)cc1-c1nccn2nc(Nc3ccc4c(c3)NC(=O)C4(C)C)nc12 [C69, 6-[8-(1,3-dimethyl-1H-pyrazol-4-yl)-[1,2,4]triazolo[1,5-a]pyrazin-2-ylamino]-3,3-dimethyl-1,3-dihydro-indol-2-one] | 0.3 to 3 | 0.1 to 0.3
9 | COc1cc(Nc2nc3c(N4CCC(O)(CCO)CC4)nccn3n2)cc(OC)c1 [C49, 1-[2-(3,5-dimethoxy-phenylamino)-[1,2,4]triazolo[1,5-a]pyrazin-8-yl]-4-(2-hydroxy-ethyl)-piperidin-4-ol] | 3 to 50 | 0.3 to 3
10 | CN(c1nccn2nc(Nc3ccc4c(c3)NC(=O)C4(C)C)nc12)C1CCCNC1 (stereo not drawn) [C88, 3,3-dimethyl-6-[8-(methyl-piperidin-3-yl-amino)-[1,2,4]triazolo[1,5-a]pyrazin-2-ylamino]-1,3-dihydro-indol-2-one] | 3 to 50 | 0.3 to 3
11 | Cn1cc(-c2nccn3nc(Nc4ccc5c(c4)NC(=O)C5(C)C)nc23)cn1 [C34, 3,3-Dimethyl-6-[8-(1-methyl-1H-pyrazol-4-yl)-[1,2,4]triazolo[1,5-a]pyrazin-2-ylamino]-1,3-dihydro-indol-2-one] | 3 to 50 | < 0.1
12 | CN1c2ccc(Nc3nc4c(-c5cnn(C)c5)nccn4n3)cc2CS1(=O)=O [C117, (1-methyl-2,2-dioxo-2,3-dihydro-1H-2I6-benzo[c]isothiazol-5-yl)-[8-(1-methyl-1H-pyrazol-4-yl)-[1,2,4]triazolo[1,5-a]pyrazin-2-yl]-amine] | 0.3 to 3 | 0.1 to 0.3
13 | Cc1nc2cc(Nc3nc4c(-c5ccc(CN6CCOCC6)cc5)nccn4n3)ccc2[nH]1 [C57, (2-methyl-1H-benzoimidazol-5-yl)-[8-(4-morpholin-4-ylmethyl-phenyl)-[1,2,4]triazolo[1,5-a]pyrazin-2-yl]-amine] | 0.3 to 3 | 3 to 50
14 | Cn1cc(-c2nccn3nc(Nc4ccc([S+](C)[O-])cc4)nc23)cn1 (stereo not drawn) [C32, (4-Methanesulfinyl-phenyl)-[8-(1-methyl-1H-pyrazol-4-yl)-[1,2,4]triazolo[1,5-a]pyrazin-2-yl]-amine] | 3 to 50 | 0.3 to 3
15 | COc1ccc(Nc2nc3c(-c4cnn(C)c4)nccn3n2)cc1 [C2, (4-Methoxy-phenyl)-[8-(1-methyl-1H-pyrazol-4-yl)-[1,2,4]triazolo[1,5-a]pyrazin-2-yl]-amine] | 3 to 50 | 0.3 to 3
16 | Cn1cc(-c2nccn3nc(Nc4cccc(S(N)(=O)=O)c4)nc23)cn1 [C14, 3-[8-(1-Methyl-1H-pyrazol-4-yl)-[1,2,4]triazolo[1,5-a]pyrazin-2-ylamino]-benzenesulfonamide] | 0.3 to 3 | 3 to 50

Further lines, results first:

Row | IC50 (GCN2) [µM] | IC50 (SYK) [µM] | Compound
17 | 3 to 50 | < 0.1 | CC1(C)C(=O)Nc2cc(Nc3nc4c(N5CCC6(CC(=O)NC6=O)C5)nccn4n3)ccc21 (stereo not drawn) [C95, 7-[2-(3,3-dimethyl-2-oxo-2,3-dihydro-1H-indol-6-ylamino)-[1,2,4]triazolo[1,5-a]pyrazin-8-yl]-2,7-diaza-spiro[4.4]nonane-1,3-dione]
18 | 0.3 to 3 | 3 to 50 | Cc1nc2cc(Nc3nc4c(-c5ccc(CN6CCOCC6)c(F)c5)nccn4n3)ccc2[nH]1 [C59, [8-(3-fluoro-4-morpholin-4-ylmethyl-phenyl)-[1,2,4]triazolo[1,5-a]pyrazin-2-yl]-(2-methyl-1H-benzoimidazol-5-yl)-amine]
19 | 3 to 50 | 0.1 to 0.3 | CC1(C)C(=O)Nc2cc(Nc3nc4c(N5CC(O)C5)nccn4n3)ccc21 [C74, 6-[8-(3-hydroxy-azetidin-1-yl)-[1,2,4]triazolo[1,5-a]pyrazin-2-ylamino]-3,3-dimethyl-1,3-dihydro-indol-2-one]
20 | 3 to 50 | 0.1 to 0.3 | Cn1nnc2ccc(Nc3nc4c(-c5ccccc5-c5ccccc5)nccn4n3)cc21 [C29]
21 | 3 to 50 | 0.3 to 3 | COc1cc(Nc2nc3c(N4CCN(C(=O)CO)CC4)nccn3n2)cc(OC)c1 [C56, 1-{4-[2-(3,5-dimethoxy-phenylamino)-[1,2,4]triazolo[1,5-a]pyrazin-8-yl]-piperazin-1-yl}-2-hydroxy-ethanone]
22 | 3 to 50 | 0.1 to 0.3 | Cn1cc(-c2nccn3nc(Nc4ccc5c(c4)CS(=O)(=O)N5)nc23)cn1 [C115, (2,2-dioxo-2,3-dihydro-1H-2I6-benzo[c]isothiazol-5-yl)-[8-(1-methyl-1H-pyrazol-4-yl)-[1,2,4]triazolo[1,5-a]pyrazin-2-yl]-amine]
23 | 0.3 to 3 | < 0.1 | CC1(C)OC(=O)Nc2cc(Nc3nc4c(-c5cccc6[nH]ncc56)nccn4n3)ccc21 [C120, 7-[8-(1H-indazol-4-yl)-[1,2,4]triazolo[1,5-a]pyrazin-2-ylamino]-4,4-dimethyl-1,4-dihydro-benzo[d][1,3]oxazin-2-one]
24 | 3 to 50 | 0.1 to 0.3 | Cn1cc(-c2nccn3nc(Nc4ccc5cn[nH]c5c4)nc23)cn1 [C12, (1H-Indazol-6-yl)-[8-(1-methyl-1H-pyrazol-4-yl)-[1,2,4]triazolo[1,5-a]pyrazin-2-yl]-amine]
25 | 3 to 50 | 0.3 to 3 | COc1cc(Nc2nc3c(N4CCNC(=O)C4)nccn3n2)cc(OC)c1 [C43, 4-[2-(3,5-dimethoxy-phenylamino)-[1,2,4]triazolo[1,5-a]pyrazin-8-yl]-piperazin-2-one]
26 | 0.3 to 3 | 0.3 to 3 | Cn1cc(-c2nccn3nc(Nc4ccc(C#N)c(O)c4)nc23)cn1 [C36, 2-Hydroxy-4-[8-(1-methyl-1H-pyrazol-4-yl)-[1,2,4]triazolo[1,5-a]pyrazin-2-ylamino]-benzonitrile]
27 | 0.3 to 3 | < 0.1 | Cn1cc(-c2nccn3nc(Nc4ccc5c(c4)NC(=O)OC5(C)C)nc23)cn1 [C114, 4,4-dimethyl-7-[8-(1-methyl-1H-pyrazol-4-yl)-[1,2,4]triazolo[1,5-a]pyrazin-2-ylamino]-1,4-dihydro-benzo[d][1,3]oxazin-2-one]
28 | 3 to 50 | < 0.1 | CC1(C)C(=O)Nc2cc(Nc3nc4c(N5CCC[C@@H](N)C5)nccn4n3)ccc21 [C94, 6-[8-((R)-3-amino-piperidin-1-yl)-[1,2,4]triazolo[1,5-a]pyrazin-2-ylamino]-3,3-dimethyl-1,3-dihydro-indol-2-one]
29 | 3 to 50 | 0.3 to 3 | CC1(C)C(=O)Nc2cc(Nc3nc4c(N5CCC(N6CCNC6=O)CC5)nccn4n3)ccc21 [C104, 3,3-dimethyl-6-{8-[4-(2-oxo-imidazolidin-1-yl)-piperidin-1-yl]-[1,2,4]triazolo[1,5-a]pyrazin-2-ylamino}-1,3-dihydro-indol-2-one]
30 | 3 to 50 | 0.3 to 3 | Cn1cc(-c2nccn3nc(Nc4cccc(N5CCOCC5)c4)nc23)cn1 [C18, [8-(1-Methyl-1H-pyrazol-4-yl)-[1,2,4]triazolo[1,5-a]pyrazin-2-yl]-(3-morpholin-4-yl-phenyl)-amine]
31 | 0.3 to 3 | < 0.1 | Cn1cc(-c2nccn3nc(Nc4ccc5c(C(C)(O)C(F)(F)F)c[nH]c5c4)nc23)cn1 (stereo not drawn) [C113, 1,1,1-trifluoro-2-{6-[8-(1-methyl-1H-pyrazol-4-yl)-[1,2,4]triazolo[1,5-a]pyrazin-2-ylamino]-1H-indol-3-yl}-propan-2-ol]
32 | 0.3 to 3 | 0.1 to 0.3 | CS(=O)(=O)c1ccc(-c2nccn3nc(Nc4ccc(N5CCOCC5)cc4)nc23)cc1 [C38, 8-(4-methylsulfonylphenyl)-N-(4-morpholinophenyl)-[1,2,4]triazolo[1,5-a]pyrazin-2-amine]
33 | 3 to 50 | 0.3 to 3 | Cn1cc(-c2nccn3nc(Nc4ccc(S(N)(=O)=O)cc4)nc23)cn1 [C16, 4-[8-(1-Methyl-1H-pyrazol-4-yl)-[1,2,4]triazolo[1,5-a]pyrazin-2-ylamino]-benzenesulfonamide]

From US9120804B2, “8-substituted 2-amino-[1,2,4] triazolo [1, 5-A] pyrazines as Syk tryrosine kinase inhibitors and GCN2 serin kinase inhibitors” (Merck Patent GmbH, priority 2012, dated 2015)
